IC50 data for eight compounds are collected here from ChEMBL document CHEMBL1156903, “Synthesis of bisboron compounds and their strong inhibitory activity on store-operated calcium entry” (Bioorg Med Chem Lett, 2010).

The IC50 is the point on the concentration scale where inhibition reaches its midpoint.

A short description of the experiment: Inhibition of thapsigargin-induced SOCE channel in fura-2 loaded human Jarkart T cells in presence of 2 mM calcium. Conditions: Jurkat.
With `NCCOB(c1ccccc1)c1ccccc1`, the IC50 amounted to 15000 nM.

Consider `Cc1ccc(B(OCCN)c2ccc(Oc3ccc(B(OCCN)c4ccc(C)c(Cl)c4)cc3)cc2)cc1Cl`, for which the IC50 was found to be 640 nM. In the case of `NCCOB(c1ccccc1)c1ccc(Oc2ccc(B(OCCN)c3ccccc3)cc2)cc1`, the IC50 turned out to be 410 nM. The same measure for `NCCOB(c1ccccc1)c1ccc(CCOCc2ccc(B(OCCN)c3ccccc3)cc2)cc1`: 310 nM; for `NCCOB(c1ccccc1)c1ccc(COCc2ccc(B(OCCN)c3ccccc3)cc2)cc1`: 430 nM. On to `NCCOB(c1ccccc1)c1cccc(COCc2cccc(B(OCCN)c3ccccc3)c2)c1`, for which the IC50 is 320 nM. For `NCCOB(c1ccccc1)c1ccc(-c2ccc(B(OCCN)c3ccccc3)cc2)cc1`, the IC50 was found to be 450 nM. For the compound `NCCOB(c1ccccc1)c1cccc(COCc2cccc(Oc3ccccc3)c2)c1`, the IC50 is 1900 nM.
